Assays:
male and female rats [1] = experiment: Intermittent-access alcohol drinking, acute DAG injection; assay type: in vivo, Rcc Han Wistar rats; details: for intake of alcohol, water, total fluid, food, alcohol preference, body weight: male and female rats
Source text: (§1) Male and female Rcc Han Wistar rats (8–12 weeks old at arrival; Envigo, Horst, Netherlands) were used for the alcohol drinking and locomotor activity experiments as they drink alcohol to intoxicating levels. For in vivo microdialysis studies male Wistar rats (Charles River, Calco, Italy) were used as they display robust dopamine levels in NAc shell after alcohol injection. […] All rodents were allowed to habituate to the animal facility at least one week before they entered an experiment. During housing (20 °C with 50% humidity) the rodents had free access to water and standard chow (Teklad Rodent Diet; Envigo, Madison, WI, USA). These experiments were approved by the Ethics Committee for Animal Experiments (ethical numbers: 1457/18, 3276/18, 1556/18, 3348/20; Gothenburg, Sweden) and followed the ARRIVE guidelines. The sample sizes of each experiment were based on previous experience in which statistical significance has been detected. The person who conducted the experiments, and analyzed the collected data was aware of the treatment allocation. Only preset exclusion criteria were used when analyzing the data obtained in attempts to exclude confounding factors in analyzing data. In the alcohol drinking experiments leaking bottles and low alcohol consumption (<3.0 g/kg for males; <3.5 g/kg for females) were preset exclusion criteria. The preset exclusion criterion in the ex vivo HPLC-EC, ELISA, and recombinant cell line experiments was contamination of the sample. Misplaced probes, technical difficulties, and damages to the surgery area were preset exclusion criteria for the in vivo microdialysis experiment. Intra-cage male aggression was the preset exclusion criterion for the locomotor activity and CPP experiments. To minimize tentative confounding factors, the order of treatments was stratified, with treatments being mixed for each animal cage and for each apparatus used as well as balancing the alcohol intake between future treatment groups. Although each experiment only was performed once, they were separated over different laboratory days with equal data obtained between sessions.
(§2) Alcohol (95%; Solveco AB, Stockholm, Sweden) was either diluted to a 20% solution using tap water (drinking experiment) or to a 15% (w/v) solution with 0.9% NaCl. Alcohol was in the behavioral and neurochemical tests injected (intraperitoneally, IP) 5 min before the test. A dose of 1.75 g/kg was used in male mice as it causes robust locomotor stimulation and induces a CPP [37–39], and 2 g/kg was used for rats as it elevates the dopamine levels in NAc shell. DAG (Tocrise Bioscience, Bristol, UK) was dissolved in 0.9% NaCl in doses (0.25–2 mg/kg) known to reduce food intake and DAG was injected IP).
(§3) Individually housed rats had intermittent access to an alcohol (20%) bottle and a water bottle, three 24-h sessions per week, and only water bottles the remaining days. A reversed light/dark cycle was used, and the bottles were changed when the lights went out. First, the rats consumed alcohol for 10 weeks (baseline drinking), where the bottles and food were weighed daily and the body weight weekly. During treatments, the bottles and food were weighed at 4- and/or 24-h and the body weight was measured daily. In the first drinking experiment, the potential of DAG to reduce alcohol consumption was tested and therefore, vehicle or DAG (1 mg/kg) was acutely injected into male (n = 12) or female (n = 12) rats. The second drinking experiment was conducted to establish the effects of lower DAG doses on alcohol intake. Therefore, separate male (n = 18) or female (n = 18) rats, were acutely injected with lower DAG doses (0.5 or 0.25 mg/kg) or vehicle. The third alcohol drinking experiment evaluated the ability of repeated DAG injections to lower alcohol drinking. Therefore, additional male (n = 24) and female (n = 24) rats were injected with either vehicle or DAG (1 mg/kg) at three alcohol-drinking sessions. […]

male and female rats [2] = experiment: Intermittent-access alcohol drinking, repeated DAG injections; assay type: in vivo, Rcc Han Wistar rats; details: for 4-h alcohol intake, overall / 24-h alcohol intake, overall: repeated DAG 1 mg/kg IP at three drinking sessions
Source text: as §1, §2, §3

male and female rats [3] = experiment: Locomotor activity test, DAG per se, rats; assay type: in vivo, Rcc Han Wistar rats; details: DAG 0.5, 1.0 or 2.0 mg/kg, 60 min recording, n = 5–6 per group
Source text: Male and female Rcc Han Wistar rats (8–12 weeks old at arrival; Envigo, Horst, Netherlands) were used for the alcohol drinking and locomotor activity experiments as they drink alcohol to intoxicating levels. For in vivo microdialysis studies male Wistar rats (Charles River, Calco, Italy) were used as they display robust dopamine levels in NAc shell after alcohol injection. […] All rodents were allowed to habituate to the animal facility at least one week before they entered an experiment. During housing (20 °C with 50% humidity) the rodents had free access to water and standard chow (Teklad Rodent Diet; Envigo, Madison, WI, USA). […] The sample sizes of each experiment were based on previous experience in which statistical significance has been detected. The person who conducted the experiments, and analyzed the collected data was aware of the treatment allocation. […]
Locomotor activity tests were conducted in ventilated and dim-lit (4 lux) open field arenas (420 × 420 × 200 mm; Med Associates Inc; Georgia, Vermont, USA). Infra-red beams detected distance traveled, number of jumps, vertical counts, average velocity, stereotypic counts, number of inner zone entries, and time spent in the inner/outer zones of each animal. […]
The obtained data are normally distributed and with equal variance. The data from drinking experiments were analyzed by unpaired t-test or repeated two-way ANOVA. […]

µ-opioid receptor = assay type: cell-based, human; details: 50 µM DAG in results (8.3 µM in methods); luminescence, triplicates
[4] = female rats, acute DAG 1.0 mg/kg IP, n = 5 vs vehicle n = 6, 4 h
[5] = male rats, acute DAG 1.0 mg/kg IP, n = 5 vs vehicle n = 6, 4 h
[6] = male rats, acute DAG 1.0 mg/kg IP, n = 5 vs vehicle n = 6, 24 h
[7] = female rats, repeated DAG 1 mg/kg IP
[8] = female rats, n = 7 vs vehicle n = 9
[9] = female rats, repeated DAG 1 mg/kg IP, drinking session 2, n = 7 vs vehicle n = 9
[10] = female rats, repeated DAG 1 mg/kg IP, n = 7 vs vehicle n = 9
[11] = male rats, repeated DAG 1 mg/kg IP
[12] = male rats, n = 8 vs vehicle n = 8

des-acyl ghrelin (GSSFLSPEHQRVQQRKESKKPPAKLQPR; Ghrelin-28 non-acylated; UniProt Q9UBU3 24-51, looked up) [DAG, non-octanoylated form of ghrelin; purchased from Tocris (printed Tocrise Bioscience), dissolved in 0.9% NaCl]
4-h alcohol intake (male and female rats [1]; [4]): decreased the 4-h alcohol intake (t9 = 2.05; P = 0.0351) | preference for alcohol, 4-h (male and female rats [1]; [4]): reduced it at the I 4-h (t9 = 2.16; P = 0.0294) | 4-h food intake (male and female rats [1]; female rats, acute DAG 1.0 mg/kg IP, n = 5 vs vehicle n = 6, 4 h (first statistic)): At neither time point, DAG affected the K, L food intake (t9 = 0.34; P = 0.7414 | 24-h alcohol intake (male and female rats [1]; female rats, acute DAG 1.0 mg/kg IP, n = 5 vs vehicle n = 6, 24 h): did not alter the 24-h drinking (t9 = 0.22; P = 0.8331) | 24-h food intake (male and female rats [1]; female rats, acute DAG 1.0 mg/kg IP, n = 5 vs vehicle n = 6, 24 h (second statistic)): At neither time point, DAG affected the K, L food intake (t9 = 0.34; P = 0.7414 and t9 = 1.12; P = 0.2909, respectively) | intake of alcohol, water, total fluid, food, alcohol preference, body weight (male and female rats [1]; acute DAG 0.25 mg/kg IP, n = 6): did not alter the intake of alcohol, water, total fluid, food intake alcohol preference or body weight in male or female rats | intake of alcohol, water, total fluid, food, alcohol preference, body weight (male and female rats [1]; acute DAG 0.5 mg/kg IP, n = 6 (males n = 5)): did not alter the intake of alcohol, water, total fluid, food intake alcohol preference or body weight in male or female rats | 4-h alcohol intake (male and female rats [1]; [5]): did not alter the A 4-h alcohol intake (t9 = 0.36; P = 0.7264) | 4-h food intake (male and female rats [1]; [5]): did not affect the E 4-h food intake (t9 = 1.51; P = 0.1657) | preference for alcohol, 4-h (male and female rats [1]; [5]): did not alter the C preference for alcohol at the 4-h time point (t9 = 1.84; P = 0.0983) | 24-h alcohol intake (male and female rats [1]; [6]): reduced the alcohol intake at the 24-h time point (t9 = 2.35; P = 0.0432) | 24-h food intake (male and female rats [1]; [6]): increased the 24-h feeding (t9 = 2.64; P = 0.0271) | preference for alcohol, 24-h (male and female rats [1]; [6]): decreased it at 24 h (t9 = 3.00; P = 0.0149) | alcohol preference (male and female rats [2]; [7]): remained unaltered by repeated injections of DAG | body weight (male and female rats [2]; [7]): not affected by repeated DAG treatment | total fluid intake (male and female rats [2]; [7]): remained unaltered by repeated injections of DAG | water intake (male and female rats [2]; [7]): remained unaltered by repeated injections of DAG | 4-h alcohol intake, overall (male and female rats [2]; [8]): overall reduced the alcohol consumption at the 4-h time point (treatment F1,14 = 9.17, P = 0.0090 **; time F2,28 = 12.63, P = 0.0001; interaction F2,28 = 1.02, P = 0.3754) | 24-h alcohol intake, overall (male and female rats [2]; [8]): An overall decline in 24-h alcohol intake was observed (treatment F1,14 = 14.72, P = 0.0018 **; time F2,28 = 2.91, P = 0.0711; interaction F2,28 = 6.43, P = 0.0051 ##) | 4-h alcohol intake, session 2 (male and female rats [2]; [9]): a decrease specifically evident at alcohol drinking session 2 (P = 0.0158) | 4-h food intake, session 2 (male and female rats [2]; [9]): The lowered food intake by DAG was found at alcohol drinking session 2 (P = 0.0475) | 4-h food intake, overall (male and female rats [2]; [10]): A lowered food intake by repeated DAG injections was observed at the 4-h (treatment F1,14 = 4.80, P = 0.0460 *; time F2,28 = 4.79, P < 0.0001; interaction F2,28 = 0.57, P = 0.5742) | 24-h food intake (male and female rats [2]; [10]): not at the 24-h time point (treatment F1,14 = 0.53, P = 0.4798; time F2,28 = 1.68, P = 0.2049; interaction F2,28 = 0.19, P = 0.8269) | body weight (male and female rats [2]; [11]): unchanged after repeated DAG injections | preference for alcohol (male and female rats [2]; [11]): unchanged after repeated DAG injections | water intake (male and female rats [2]; [11]): unchanged after repeated DAG injections | 4-h alcohol intake, overall (male and female rats [2]; [12]): overall decrease in alcohol intake at the A 4-h time point (treatment F1,14 = 5.12, P = 0.0401 *; time F2,28 = 1.87, P = 0.1754; interaction F2,28 = 0.59, P = 0.5622) | 24-h alcohol intake, overall (male and female rats [2]; [12]): An overall reduction in alcohol intake was observed after DAG injections (treatment F1,14 = 1.96, P = 0.1836; time F2,28 = 3.44, P = 0.0460; interaction F2,28 = 4.34, P = 0.0228 #) | total fluid intake, 24-h (male and female rats [2]; male rats, repeated DAG 1 mg/kg IP, 24 h): overall decline in the total fluid intake at the 24-h time point (P = 0.0304) | 24-h alcohol intake, session 2 (male and female rats [2]; male rats, repeated DAG 1 mg/kg IP, drinking session 2, n = 8 per group): specifically at alcohol drinking session 2 (P = 0.0324) | 4-h alcohol intake, session 3 (male and female rats [2]; male rats, repeated DAG 1 mg/kg IP, drinking session 3, n = 8 per group): specifically lower after DAG at alcohol drinking session 3 (P = 0.0256) | 4-h food intake (male and female rats [2]; male rats, repeated DAG 1 mg/kg IP, n = 8 per group (4-h statistics)): did not alter the food intake at any time point (4-h: treatment F1,14 = 1.41, P = 0.2546; time F2,28 = 6.86, P = 0.0045; interaction F2,28 = 0.05, P = 0.9518 | 24-h food intake (male and female rats [2]; male rats, repeated DAG 1 mg/kg IP, n = 8 per group (24-h statistics)): 24-h: treatment F1,14 = 0.55, P = 0.4727; time F2,28 = 13.79, P < 0.0001; interaction F2,28 = 1.03, P = 0.3707 | locomotor activity, DAG per se (male and female rats [3]; female rats): did not influence locomotor activity | locomotor activity, DAG per se (male and female rats [3]; male rats): did not influence locomotor activity | activation of µ-opioid receptor (µ-opioid receptor): no activation
